Source: patent US11596611B2, “Hepatitis B antiviral agents” (ENANTA PHARMACEUTICALS, INC., priority 2017, dated 2023)

test system: HBV; assay: HepAD38 antiviral assay: reduction of viral product accumulation (virion DNA by qPCR, HBsAg or HBeAg by ELISA); type: cell-based, hepatitis B virus; settings: Hepatitis B virus, 120 h; HepAD38 cells, five days after compound addition; 50% reduction of viral product vs no drug controls; read-out: HepAD38 EC50
Description: Methods: HepAD38 cells are maintained as previously reported (Ladner et al, Antimicrob. Agents Chemother. 1997, […], 1715). Briefly, cells are passaged upon attaining confluency in DMEM/F12 media in the presence of 10% FBS, Penn/Strep, 250 μg/mL G418, and 1 ug/ml tetracycline. Novel compounds are screened by first washing cells three times with PBS to remove tetracycline, and plating in 96 well plates at 35,000 cells/well. Compounds dissolved in DMSO are then diluted 1:200 into wells containing cells. Five days after compound addition, material is harvested for analysis. For an extended 8 days analysis, cells are plated and treated as described above, but media and compound are refreshed on d2 and d5 post initial treatment.
On harvest day, virion DNA is obtained by lysing with Sidestep Lysis and Stabilization Buffer and then quantified via quantitative real time PCR. Commercially available ELISA kits are used to quantitate the viral proteins HBsAg (Alpco) or HbeAg (US Biological) by following the manufacturer's recommended protocol after diluting samples to match the linear range of their respective assays.

Row | Compound | EC50 [µM]
1 | O=C1CC[C@@H](C(=O)NC[C@]2(O)C3CCC2C[C@@H](S(=O)(=O)c2cc(C(=O)Nc4cc(F)c(F)c(F)c4)ccc2Cl)C3)N1 [Example 127] | > 0.2
2 | O=C1CC[C@H](C(=O)NC[C@@]2(O)C3CC[C@H]2C[C@H](S(=O)(=O)c2cc(C(=O)Nc4cc(F)c(F)c(F)c4)ccc2Cl)C3)N1 [Example 128] | > 0.2
3 | C[C@@]1(O)C2CC[C@H]1C[C@H](S(=O)(=O)c1cc(C(=O)Nc3ccc(F)c(F)c3)c(-c3ccncc3)cc1Cl)C2 [Example 132] | > 0.2
4 | C[C@]1(O)C2CCC1C[C@@H](S(=O)(=O)c1cc(C(=O)Nc3ccc(F)c(F)c3)c(-c3ccccn3)cc1Cl)C2 [Example 133] | > 0.2
5 | C[C@]1(O)C2CCC1C[C@@H](S(=O)(=O)c1cc(C(=O)Nc3ccc(F)c(O)c3)ccc1Cl)C2 [Example 134] | > 0.2
6 | O=C(C[C@]1(O)C2CCC1C[C@@H](S(=O)(=O)c1cc(C(=O)Nc3cc(F)c(F)c(F)c3)ccc1Cl)C2)Nc1nccs1 [Example 138] | < 0.104
7 | COC(=O)CCNC(=O)C[C@]1(O)C2CCC1C[C@@H](S(=O)(=O)c1cc(C(=O)Nc3cc(F)c(F)c(F)c3)ccc1Cl)C2 [Example 139] | > 0.2
8 | O=C(O)CCNC(=O)C[C@]1(O)C2CCC1C[C@@H](S(=O)(=O)c1cc(C(=O)Nc3cc(F)c(F)c(F)c3)ccc1Cl)C2 [Example 140] | > 0.2
9 | COC(=O)N1CCC[C@H]1C(=O)N1C2CCC1CC(S(=O)(=O)c1cc(C(=O)Nc3cc(F)c(F)c(F)c3)ccc1Cl)C2 (stereo partly shown) [Example 143] | > 0.2
10 | CN1C2CCC1CC(S(=O)(=O)c1cc(C(=O)Nc3cc(F)c(F)c(F)c3)ccc1Cl)C2 (stereo not shown) [Example 145] | > 0.2
11 | O=C(Nc1cc(F)c(F)c(F)c1)c1ccc(Cl)c(S(=O)(=O)C2CC3CCC(C2)N3C2CCCC2)c1 (stereo not shown) [Example 146] | > 0.2
12 | COC(=O)NCCC(=O)N1C2CCC1CC(S(=O)(=O)c1cc(C(=O)Nc3cc(F)c(F)c(F)c3)ccc1Cl)C2 (stereo not shown) [Example 147] | < 0.104
13 | CC(C)(O)C(O)CNC(=O)[C@@]1(O)C2CC[C@H]1C[C@H](S(=O)(=O)c1cc(C(=O)Nc3cc(F)c(F)c(F)c3)ccc1Cl)C2 (stereo partly shown) [Example 148] | 0.1 to 0.2
14 | COC(=O)N[C@@H](Cc1ccccc1)C(=O)N1C2CCC1CC(S(=O)(=O)c1cc(C(=O)Nc3cc(F)c(F)c(F)c3)ccc1Cl)C2 (stereo partly shown) [Example 154] | > 0.2
15 | NS(=O)(=O)NC[C@]1(O)C2CCC1C[C@@H](S(=O)(=O)c1cc(C(=O)Nc3cc(F)c(F)c(F)c3)ccc1Cl)C2 [Example 156] | < 0.104
16 | C[C@]1(O)C2CCC1C[C@@H](S(=O)(=O)c1cc(C(=O)Nc3ccc(F)c(F)c3)c(-c3nccs3)cc1Cl)C2 [Example 157] | < 0.104
17 | O=C(Nc1ccc(F)c(F)c1)c1ccc(Cl)c(S(=O)(=O)[C@H]2CC3CCC(C2)[C@]3(O)CNC(=O)C2CC2)c1 [Example 158] | < 0.104
18 | COC(=O)N[C@@H](C)C(=O)NC[C@]1(O)C2CCC1C[C@@H](S(=O)(=O)c1cc(C(=O)Nc3ccc(F)c(F)c3)ccc1Cl)C2 [Example 159] | < 0.104
19 | C[C@@]1(O)C2CC[C@H]1C[C@H](S(=O)(=O)c1cc(C(=O)Nc3ccc(F)c(F)c3)c(Cc3ccccc3)cc1Cl)C2 [Example 160] | > 0.2
20 | C[C@]1(O)C2CCC1C[C@@H](S(=O)(=O)c1cc(C(=O)Nc3ccc(F)c(CO)c3)ccc1Cl)C2 [Example 166] | < 0.104

Row | Compound | EC50 [µM]
21 | C[C@H](O)CC(=O)NC[C@]1(O)C2CCC1C[C@@H](S(=O)(=O)c1cc(C(=O)Nc3ccc(F)c(F)c3)ccc1Cl)C2 [Example 169] | 0.1 to 0.2
22 | CC(C)(O)CC(=O)NC[C@]1(O)C2CCC1C[C@@H](S(=O)(=O)c1cc(C(=O)Nc3ccc(F)c(F)c3)ccc1Cl)C2 [Example 170] | < 0.104
23 | O=C(Nc1ccc(F)c(F)c1)c1ccc(Cl)c(S(=O)(=O)[C@H]2CC3CCC(C2)[C@]3(O)CNC(=O)C2CC(O)C2)c1 (stereo partly shown) [Example 171] | > 0.2
24 | O=C(C[C@]1(O)C2CCC1C[C@@H](S(=O)(=O)c1cc(C(=O)Nc3ccc(F)c(F)c3)ccc1Cl)C2)NCCO [Example 184] | < 0.104
25 | COCCNC(=O)C[C@]1(O)C2CCC1C[C@@H](S(=O)(=O)c1cc(C(=O)Nc3ccc(F)c(F)c3)ccc1Cl)C2 [Example 190] | < 0.104
26 | O=C(Nc1ccc(F)c(F)c1)c1ccc(Cl)c(S(=O)(=O)CC2CCC(O)(CO)CC2)c1 (stereo not shown) [Example 194] | 0.1 to 0.2
27 | CC(C)(O)CNC(=O)C[C@]1(O)CC[C@@H](CS(=O)(=O)c2cc(C(=O)Nc3ccc(F)c(F)c3)ccc2Cl)CC1 [Example 195] | > 0.2
28 | CC(C)(O)CNC(=O)C[C@]1(O)CC[C@H](CS(=O)(=O)c2cc(C(=O)Nc3ccc(F)c(F)c3)ccc2Cl)CC1 [Example 196] | > 0.2
29 | C[C@@H](O)COCC1(O)CCC(CS(=O)(=O)c2cc(C(=O)Nc3ccc(F)c(F)c3)ccc2Cl)CC1 (stereo partly shown) [Example 197] | > 0.2
30 | C[C@H](O)COCC1(O)CCC(CS(=O)(=O)c2cc(C(=O)Nc3ccc(F)c(F)c3)ccc2Cl)CC1 (stereo partly shown) [Example 198] | 0.1 to 0.2
31 | O=C(Nc1ccc(F)c(F)c1)c1ccc(Cl)c(S(=O)(=O)CC2CCC(O)(C(O)CO)CC2)c1 (stereo not shown) [Example 199] | > 0.2
32 | O=C(Nc1ccc(F)c(F)c1)c1ccc(Cl)c(S(=O)(=O)CC2CC(O)(CO)C2)c1 (stereo not shown) [Example 200] | > 0.2
33 | O=C(Nc1ccc(F)c(F)c1)c1ccc(Cl)c(S(=O)(=O)C2CO[C@@H]3C(O)CO[C@H]23)c1 (stereo partly shown) [Example 201] | > 0.2
34 | COC(=O)C1([C@]2(O)C3CCC2C[C@@H](S(=O)(=O)c2cc(C(=O)Nc4cc(F)c(F)c(F)c4)ccc2Cl)C3)COC(C)(C)O1 (stereo partly shown) [Example 202] | < 0.104
35 | O=C[C@]1(O)C2CCC1C[C@@H](S(=O)(=O)c1cc(C(=O)Nc3ccc(F)c(F)c3)ccc1Cl)C2 [Example 203] | < 0.104
36 | O=C(Nc1ccc(F)c(F)c1)c1ccc(Cl)c(S(=O)(=O)C2CC3CCC(C2)C3=O)c1 (stereo not shown) [Example 204] | 0.1 to 0.2
37 | O=C(Nc1ccc(F)c(F)c1)c1ccc(Cl)c(S(=O)(=O)[C@H]2CC3CCC(C2)[C@]3(O)C(=O)O)c1 [Example 205] | > 0.2
38 | O=C(Nc1ccc(F)c(F)c1)c1ccc(Cl)c(S(=O)(=O)CC2CC(O)(C(O)CO)C2)c1 (stereo not shown) [Example 207] | > 0.2
39 | C[C@H](O)COCC1(O)CC(CS(=O)(=O)c2cc(C(=O)Nc3ccc(F)c(F)c3)ccc2Cl)C1 (stereo partly shown) [Example 208] | > 0.2
40 | C[C@@H](O)COCC1(O)CC(CS(=O)(=O)c2cc(C(=O)Nc3ccc(F)c(F)c3)ccc2Cl)C1 (stereo partly shown) [Example 209] | > 0.2

Row | Compound | EC50 [µM]
41 | C[C@]1(O)C2CCC1C[C@@H](S(=O)(=O)c1cc(C(=O)Nc3ccnnc3)ccc1Cl)C2 [Example 212] | > 0.2
42 | C[C@]1(O)C2CCC1C[C@@H](S(=O)(=O)c1cc(C(=O)Nc3cccnn3)ccc1Cl)C2 [Example 213] | > 0.2
43 | C[C@@]1(O)C2CC[C@H]1C[C@H](S(=O)(=O)c1cc(C(=O)Nc3cnccn3)ccc1Cl)C2 [Example 214] | > 0.2
44 | O=C(Nc1ccc(F)c(F)c1)c1ccc(Cl)c(S(=O)(=O)CC2CCC3(CC2)OCCO3)c1 [Example 216] | 0.1 to 0.2
45 | C[C@]1(O)C2CCC1C[C@@H](S(=O)(=O)c1cc(C(=O)Nc3ncccn3)ccc1Cl)C2 [Example 217] | > 0.2
46 | O=C(Nc1ccc(F)c(F)c1)c1ccc(Cl)c(S(=O)(=O)CC2CCC(F)(F)CC2)c1 [Example 219] | > 0.2
47 | O=C(Nc1ccc(F)c(F)c1)c1ccc(Cl)c(S(=O)(=O)C2CC(O)(CO)C2)c1 (stereo not shown) [Example 220] | > 0.2
48 | C[C@]1(O)C2CCC1C[C@@H](S(=O)(=O)c1cc(C(=O)Nc3ccncn3)ccc1Cl)C2 [Example 221] | > 0.2
49 | CC(=O)C[C@]1(O)CC[C@H](CS(=O)(=O)c2cc(C(=O)Nc3ccc(F)c(F)c3)ccc2Cl)CC1 [Example 222] | 0.1 to 0.2
50 | CC(=O)C[C@]1(O)CC[C@@H](CS(=O)(=O)c2cc(C(=O)Nc3ccc(F)c(F)c3)ccc2Cl)CC1 [Example 223] | 0.1 to 0.2
51 | CC(O)C[C@]1(O)CC[C@@H](CS(=O)(=O)c2cc(C(=O)Nc3ccc(F)c(F)c3)ccc2Cl)CC1 (stereo partly shown) [Example 224] | 0.1 to 0.2
52 | CC(O)C[C@]1(O)CC[C@H](CS(=O)(=O)c2cc(C(=O)Nc3ccc(F)c(F)c3)ccc2Cl)CC1 (stereo partly shown) [Example 225] | 0.1 to 0.2
53 | O=C(Nc1ccc(F)c(F)c1)c1ccc(Cl)c(S(=O)(=O)CC2CCC(F)CC2)c1 (stereo not shown) [Example 226] | > 0.2
54 | O=C(Nc1ccc(F)c(F)c1)c1ccc(Cl)c(S(=O)(=O)CC2CC=CCC2)c1 (stereo not shown) [Example 227] | > 0.2
55 | CC(C)(O)C[C@]1(O)CC[C@@H](CS(=O)(=O)c2cc(C(=O)Nc3ccc(F)c(F)c3)ccc2Cl)CC1 [Example 228] | > 0.2
56 | C[C@H](O)COCC1(O)CC(S(=O)(=O)c2cc(C(=O)Nc3ccc(F)c(F)c3)ccc2Cl)C1 (stereo partly shown) [Example 230] | > 0.2
57 | CC(C)(C1CCC2(CC1)OCCO2)S(=O)(=O)c1cc(C(=O)Nc2ccc(F)c(F)c2)ccc1Cl [Example 231] | > 0.2
58 | CC(C)(C1CCC(F)(F)CC1)S(=O)(=O)c1cc(C(=O)Nc2ccc(F)c(F)c2)ccc1Cl [Example 232] | > 0.2
59 | CCC1(O)CC(S(=O)(=O)c2cc(C(=O)Nc3ccc(F)c(F)c3)ccc2Cl)C1 (stereo not shown) [Example 233] | > 0.2

same assay, conditions: Hepatitis B virus, HePAD38, 120 h, read-out: HepAD38 EC50 (μM)

Row | Compound | EC50 [µM]
60 | COC(=O)N[C@H](C(=O)N1C2CCC1CC(S(=O)(=O)c1cc(C(=O)Nc3cc(F)c(F)c(F)c3)ccc1Cl)C2)C(C)C (stereo partly shown) [Example 142] | 0.1 to 0.2
61 | O=C(Nc1cc(F)c(F)c(F)c1)c1ccc(Cl)c(S(=O)(=O)[C@@H]2CC3CC[C@@H](C2)N3C[C@H](O)CO)c1 [Example 153] | 0.1 to 0.2
